Patent US9701680B2, “Pyrimidine and pyridine compounds and their usage” (HUTCHISON MEDIPHARMA LIMITED, priority 2013, dated 2017)
Where two headings read alike, the source gives them in different places.

Tests used:
[1] = biological target: FGFR3 kinase (Homo sapiens, UniProt P22607); experiment: Z-Lyte Kinase Assay of FGFR3; assay type: biochemical
Procedure: Example 25: Z-Lyte Kinase Assay of FGFR3
• 1. Materials and Reagents:
• 2. Reaction Steps: Plate Map
• 3. […] The final concentrations are 1, 0.33, 0.11, 0.037, 0.012, 0.004, 0.0014, 0.00046 μM, and the final concentration of DMSO is 2%. • 3) Kinase/Peptide Mixture (P/K solution): Prepare Kinase/Peptide Mixture by diluting the kinase to 0.7 μg/ml and the Z-LYTE™ Tyr 4 peptide to 4 μM in 1.33× Kinase Buffer. Mix gently by pipetting. • 4) Phospho-peptide Solution (PP solution): Add 0.4 μl of Z-LYTE™ Tyr 4 Phospho-peptide to 99.6 μl of 1.33× Kinase Buffer. • 5) ATP Solution: Prepare ATP Solution by diluting the 10 mM of ATP in 1.33× Kinase Buffer to 300 uM. • 6) Development Solution: Dilute Development Reagent B with Development Buffer as 1:128. • 4. […] Shake the plate for 30 Sec and centrifuge (1500 rpm, 1 min). • Seal the plate to protect from the light and incubate the plate for 1 hour at RT (25-30° C.). • 2) Development reaction • Add 5 μl of the Development solution to all wells. • Shake the plate for 30 Sec and centrifuge (1500 rpm, 1 min). • Seal the plate to protect from the light and incubate the plate for 1 hour at RT (25-30° C.). • 3) Stop and Read • Add 5 μl of the Stop reagent to all wells. • Shake the plate for 30 Sec and centrifuge (1500 rpm, 1 min). • Measure the value of Coumarin (Ex400 nm, Em445 nm) and fluorescein (Ex400 nm, Em520 nm), respectively. • 5. Data Analysis Emission Ratio(ER)=Coumarin Emission (445 nm)/Fluorescein Emission (520 nm) % Phosphorylation=1−[ER×C3520nm-C3445nm]/[(C1445nm-C3445nm)+ER×(C3520nm−C1520nm)] Inhibition rate (IR)=1−% Photest Cpd/% PhoC2 • 6. IC50 Value: determined with add-in software for Microsoft Excel, XLfit™ (version 2.0) from ID Business Solutions (Guildford, UK)

[2] = biological target: Recombinant human FGFR1 (Homo sapiens, UniProt P11362); experiment: Transcreener Kinase Assay of FGFR1; assay type: biochemical
Procedure: (§1) • 1. […] Prepare Solution • Test compounds were solved in DMSO and were diluted with assay buffer to 5 folds of final concentration keeping the DMSO concentration at 5%. Further dilution are needed to make final concentrations are at 1, 0.33, 0.11, 0.037, 0.012, 0.004, 0.0014, 0.0005 μM; (the final concentration of DMSO is 1%). • Enzyme/Substrate stock Preparation: Recombinant human FGFR1 and Poly E4Y are both diluted in assay buffer.
• 3. Enzymatic Reaction • In a 96-well plate, add 5 μL of diluted solution of test compound or control solution. (positive control: 5 μL of 5% DMSO; negative control: 5 μL of 500 mM EDTA) into desired wells respectively; • Add 10 μL of Enzyme/Substrate stock into each well; • Add 10 μL of ATP Diluents to initiate the enzyme reaction and vortex the plate immediately on a plate shaker; • For the wells to make standard curve, add 5 μL of 5% DMSO, 10 μL of assay buffer and 10 μL of ATP standard curve stock. • Incubate the plate for 45 min at 28° C. on a plate shaker in a low speed. • 4. […] Excitation wavelength: 610 nm, Emission wavelength: 670 nm. • 5. Data Analysis
(§2) [formula] Note: • [ADP] in Compound well represents the ADP concentration in test compound well. • [ADP] in Positive control well represents the ADP concentration in 5% DMSO well • Conversion of mP value to ADP concentration is calculated based on the formula which determined by standard curve. And mP value is measured by following the instruction provided by BellBrook Labs. (www.bellbrooklabs.com). • 6. IC50: determined with add-in software for Microsoft Excel, XLfit™ (version 2.0) from ID Business Solutions (Guildford, UK).

[3] = system: SNU-16; experiment: Cellular Proliferation Assay (Cell Counting Kit-8), SNU-16; assay type: cell-based; conditions: Homo sapiens; SNU-16 cells, 72 hours
Procedure: (§3) Example 26: Cellular Proliferation Assay
(§4) • 1. Cell Line • KG-1 (ATCC Accession No. CCL-246), • SNU-16 (ATCC Accession No. CRL-5974), • RT-112 (ECACC Accession No. 85061106) • 2. Assay Protocol • FGFR related cancer cell proliferation is measured in 96-well plates using Cell Counting Kit-8 (Dojindo CK04-13). • Seed 30000 cells/well of KG1, 5000 cells/well of SNU16, and 1000 cells/well of RT112 in a volume of 100 μL/well in growth media. • After 24 hours, dilute the test compound to 10, 3.3, 1.1, 0.37, 0.12, 0.04, 0.013, 0.004 μM, keeping the DMSO concentration at 5%. • Add 10 μL of 8-point compound series to the wells of culturing cells. • Incubate at 37° C. and 5% CO2 for 72 hours • Add 10 μL/well of CCkit8 and incubate at 37° C. and 5% CO2 for an hour • Detect the optical density of each well at 450 nm on Labsystems Multiskan K3. • 3. Data Analysis
(§5) [formula] Note: • ODcompound well represents the optical density of cells treated with compound. • ODcell well represents the optical density of cells without compounds treatment.(only 0.5% DMSO) • ODcontrol well represents the optical density of culture media background • IC50: determined with add-in software for Microsoft Excel, XLfit™ (version 2.0) from ID Business Solutions (Guildford, UK).

[4] = biological target: Recombinant human FGFR2 (Homo sapiens, UniProt P21802); experiment: Transcreener Kinase Assay of FGFR2; assay type: biochemical
Procedure: Example 24: Transcreener Kinase Assay of FGFR2
as §1, with “FGFR2” for “FGFR1”, “buffer. The final concentration is 0.3 ng/μL for FGFR2 and 62.5 ng/μL for Poly E4Y. The mixture is being kept in ice before use; • Prepare ATP Diluents, 10 mM ATP is diluted in assay buffer, the final concentration is 25 μM; • Prepare ADP Diluents: diluted ADP (500 μM) in assay buffer, the final concentration is 25 μM; • Prepare ATP standard curve stock as following:” for “buffer.”
• 3. Enzymatic Reaction • In a 96-well plate, add 5 μL of deluted solution of test compound or control solution. (positive control: 5 μL of 5% DMSO; negative control: 5 μL of 500 mM EDTA) into desired wells respectively; • Add 10 μL of Enzyme/Substrate stock into each well; • Add 10 μL of ATP Diluents to initiate the enzyme reaction and vortex the plate immediately on a plate shaker; • For the wells to make standard curve, add 5 μL of 5% DMSO, 10 μL of assay buffer and 10 μL of ATP standard curve stock. • Incubate the plate for 45 min at 28° C. on a plate shaker in a low speed. • 4. Stoping Reaction and Detecting ADP • Detection Mix Preparation: The mixture is made by dilution with MilliQ water; as following: ADP Alexa633 tracer (1:100), ADP antibody (1:158), and stop & detect buffer (1:10); • Tracer Only control Preparation: The mixture is made by dilution with MilliQ water; as following: ADP Alexa633 tracer (1:100), and stop & detect buffer (1: 10) • No Tracer control Preparation: stop & detect buffer is diluted with MilliQ water; by 10 fold. • Add 25 μL of detection mix, Tracer Only control and No Tracer control into corresponding wells, respectively; • Incubate at 28° C. for 1 h, on a plate shaker in a low speed; • Measure florescence polarization (mP) on TECAN F500. Excitation wavelength: 610 nm, Emission wavelength: 670 nm. • 5. Data Analysis
as §2

[5] = system: RT-112; experiment: Cellular Proliferation Assay (Cell Counting Kit-8), RT-112; assay type: cell-based; conditions: Homo sapiens; RT-112 cells, 72 hours
Procedure: as §3, §4, §5

[6] = system: KG-1; experiment: Cellular Proliferation Assay (Cell Counting Kit-8), KG-1; assay type: cell-based; conditions: Homo sapiens; KG-1 cells, 72 hours; read-out: KG1 IC50
Procedure: as §3, §4, §5

Chain of Recombinant human FGFR1 (P11362 22-822): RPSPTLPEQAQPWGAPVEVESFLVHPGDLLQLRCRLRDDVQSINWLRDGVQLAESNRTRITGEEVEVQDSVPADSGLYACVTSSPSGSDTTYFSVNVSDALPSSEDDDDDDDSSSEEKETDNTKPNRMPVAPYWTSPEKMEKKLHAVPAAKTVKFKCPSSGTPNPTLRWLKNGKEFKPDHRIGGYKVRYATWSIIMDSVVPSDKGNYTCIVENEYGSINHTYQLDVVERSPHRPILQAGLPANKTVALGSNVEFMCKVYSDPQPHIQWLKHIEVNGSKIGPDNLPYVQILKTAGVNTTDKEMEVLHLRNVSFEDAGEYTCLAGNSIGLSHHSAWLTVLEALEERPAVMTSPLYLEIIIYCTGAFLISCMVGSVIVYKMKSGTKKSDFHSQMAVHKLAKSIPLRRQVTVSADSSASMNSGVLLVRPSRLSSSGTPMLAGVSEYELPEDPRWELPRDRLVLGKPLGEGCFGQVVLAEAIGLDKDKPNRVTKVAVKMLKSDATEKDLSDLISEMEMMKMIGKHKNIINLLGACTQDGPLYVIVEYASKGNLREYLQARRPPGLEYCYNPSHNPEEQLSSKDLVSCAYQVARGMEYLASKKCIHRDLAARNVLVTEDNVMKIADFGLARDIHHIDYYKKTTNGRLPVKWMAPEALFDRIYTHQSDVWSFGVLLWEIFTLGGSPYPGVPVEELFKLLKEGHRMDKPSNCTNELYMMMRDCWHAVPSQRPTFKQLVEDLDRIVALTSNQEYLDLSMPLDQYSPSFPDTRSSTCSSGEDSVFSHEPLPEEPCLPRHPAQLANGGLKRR
Chain of Recombinant human FGFR2 (P21802 22-821): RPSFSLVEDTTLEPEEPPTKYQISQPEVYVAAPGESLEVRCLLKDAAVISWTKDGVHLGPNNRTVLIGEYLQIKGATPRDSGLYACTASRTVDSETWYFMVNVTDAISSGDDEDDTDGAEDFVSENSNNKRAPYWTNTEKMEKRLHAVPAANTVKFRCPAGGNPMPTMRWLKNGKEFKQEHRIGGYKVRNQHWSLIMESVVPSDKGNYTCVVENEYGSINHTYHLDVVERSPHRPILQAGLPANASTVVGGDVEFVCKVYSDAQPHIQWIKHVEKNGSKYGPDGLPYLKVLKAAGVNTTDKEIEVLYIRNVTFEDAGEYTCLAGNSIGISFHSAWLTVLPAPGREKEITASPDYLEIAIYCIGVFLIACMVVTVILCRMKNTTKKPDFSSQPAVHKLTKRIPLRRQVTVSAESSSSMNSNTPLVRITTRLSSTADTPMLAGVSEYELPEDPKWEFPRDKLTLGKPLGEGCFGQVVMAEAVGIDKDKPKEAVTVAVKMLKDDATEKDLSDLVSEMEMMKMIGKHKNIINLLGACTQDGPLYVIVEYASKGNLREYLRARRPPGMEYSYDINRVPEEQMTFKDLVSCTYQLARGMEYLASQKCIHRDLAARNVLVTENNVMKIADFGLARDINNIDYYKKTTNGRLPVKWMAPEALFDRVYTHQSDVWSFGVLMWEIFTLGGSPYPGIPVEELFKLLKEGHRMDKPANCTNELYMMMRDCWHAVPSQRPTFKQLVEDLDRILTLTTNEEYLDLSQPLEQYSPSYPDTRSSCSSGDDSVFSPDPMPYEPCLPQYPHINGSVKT
Chain of FGFR3 kinase (P22607 23-806): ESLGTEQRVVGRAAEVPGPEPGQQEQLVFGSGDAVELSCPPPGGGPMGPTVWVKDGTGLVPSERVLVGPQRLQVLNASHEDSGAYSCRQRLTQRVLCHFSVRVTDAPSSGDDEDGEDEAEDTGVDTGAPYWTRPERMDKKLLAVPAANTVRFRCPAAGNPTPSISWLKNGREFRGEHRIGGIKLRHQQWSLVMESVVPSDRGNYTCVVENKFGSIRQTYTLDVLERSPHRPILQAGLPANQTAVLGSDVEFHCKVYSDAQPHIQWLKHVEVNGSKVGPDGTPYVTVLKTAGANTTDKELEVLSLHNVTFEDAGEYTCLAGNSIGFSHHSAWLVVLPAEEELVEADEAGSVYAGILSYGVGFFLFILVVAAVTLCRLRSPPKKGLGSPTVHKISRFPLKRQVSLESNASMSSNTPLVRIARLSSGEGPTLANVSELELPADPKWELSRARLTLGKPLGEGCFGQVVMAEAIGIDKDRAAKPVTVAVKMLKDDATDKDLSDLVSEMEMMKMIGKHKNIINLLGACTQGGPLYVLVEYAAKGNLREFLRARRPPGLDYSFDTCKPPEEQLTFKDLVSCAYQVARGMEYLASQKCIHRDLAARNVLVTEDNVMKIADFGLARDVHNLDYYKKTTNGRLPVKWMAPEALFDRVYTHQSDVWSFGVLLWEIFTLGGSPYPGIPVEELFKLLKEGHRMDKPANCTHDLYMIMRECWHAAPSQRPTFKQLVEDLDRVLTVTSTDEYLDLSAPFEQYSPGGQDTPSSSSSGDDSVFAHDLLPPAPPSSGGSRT

CNC(=O)c1cc(COc2cnc(Nc3ccc(N4C[C@@H](C)N[C@@H](C)C4)c(OC)c3)nc2)c(F)c(OC)c1 [Compound 282]
IC50 ([1]; Z-lyte): 7 nM
IC50 ([2]; FP): 18 nM
IC50 [3]: 5 nM
IC50 ([4]; FP): 9 nM
IC50 [5]: 5 nM
IC50 [6]: 46 nM

CCn1cc(Nc2ncc(/C=C/c3cc(C(=O)NC)cc(OC)c3Br)cn2)cn1 [Compound 3]
IC50 [1]: 188 nM
IC50 ([2]; read-out: FGFR1 (FP) IC50): 28 nM
IC50 ([4]; read-out: FGFR2 (FP) IC50): 28 nM

CNC(=O)c1cc(CCc2cnc(Nc3cnn(CC(F)(F)F)c3)nc2)c(F)c(OC)c1 [Compound 35]
IC50 ([4]; read-out: FGFR2 (FP) IC50): 10 nM

CNC(=O)c1cc(COc2cnc(Nc3ccc(N4C[C@@H]5CCN(C)[C@@H]5C4)c(OC)c3)nc2)c(F)c(OC)c1 [Compound 293]
IC50 ([1]; Z-lyte): 11 nM
IC50 ([2]; FP): 18 nM
IC50 ([4]; FP): 8 nM

CCN1CCN(c2ccc(Nc3ncc(C#Cc4cc(C(=O)NC)cc(OC)c4F)cn3)cc2OC)CC1 [Compound 307]
IC50 ([1]; Z-lyte): 21 nM
IC50 ([2]; FP): 19 nM
IC50 [3]: 1 nM
IC50 ([4]; FP): 17 nM
IC50 [5]: 5 nM
IC50 [6]: 5 nM

CNC(=O)c1cc(COc2cnc(Nc3ccc(C4CCNCC4)nc3)nc2)c(F)c(OC)c1 [Compound 236]
IC50 [1]: 9 nM
IC50 ([2]; read-out: FGFR1 (FP) IC50): 28 nM
IC50 ([4]; read-out: FGFR2 (FP) IC50): 14 nM

CCN1CC[C@H](n2cc(Nc3ncc(CCc4cc(C(=O)NC)cc(OC)c4F)cn3)cn2)C1 [Compound 191]
IC50 [1]: 132 nM
IC50 ([2]; read-out: FGFR1 (FP) IC50): 99 nM
IC50 ([4]; read-out: FGFR2 (FP) IC50): 87 nM

CNC(=O)c1cc(COc2cnc(Nc3ccc(N4C[C@@H](C)N[C@@H](C)C4)nc3)nc2)c(F)c(OC)c1 [Compound 257]
IC50 [6]: 103 nM

CNC(=O)c1cc(CCc2cnc(Nc3cnn([C@H]4CCOC4)c3)nc2)c(F)c(OC)c1 [Compound 137]
IC50 [1]: 13 nM
IC50 ([2]; read-out: FGFR1 (FP) IC50): 9 nM
IC50 [3]: 18 nM
IC50 ([4]; read-out: FGFR2 (FP) IC50): 5 nM

CNC(=O)c1cc(COc2cnc(Nc3ccc(N4CCN(C5CCCC5)CC4)c(OC)c3)nc2)c(F)c(OC)c1 [Compound 302]
IC50 ([1]; Z-lyte): 9 nM
IC50 ([2]; FP): 12 nM
IC50 ([4]; FP): 7 nM

CNC(=O)c1cc(COc2cnc(Nc3ccc(N4CCN(C5CC5)CC4)c(OC)c3)nc2)c(F)c(OC)c1 [Compound 294]
IC50 ([1]; Z-lyte): 5 nM
IC50 ([2]; FP): 14 nM
IC50 ([4]; FP): 6 nM

CNC(=O)c1cc(COc2cnc(Nc3cnn(C[C@H](O)CO)c3)nc2)c(F)c(OC)c1 [Compound 220]
IC50 [1]: 8 nM
IC50 ([2]; read-out: FGFR1 (FP) IC50): 17 nM
IC50 ([4]; read-out: FGFR2 (FP) IC50): 10 nM

CNC(=O)c1cc(CCc2cnc(Nc3cccc(N4C[C@@H](C)N[C@@H](C)C4)c3)nc2)cc(OC)c1 [Compound 12]
IC50 [3]: 266 nM

CNC(=O)c1cc(CCc2cnc(Nc3cnn([C@@H]4CCOC4)c3)nc2)c(F)c(OC)c1 [Compound 136]
IC50 ([2]; read-out: FGFR1 (FP) IC50): 10 nM
IC50 ([4]; read-out: FGFR2 (FP) IC50): 7 nM
IC50 [5]: 166 nM
IC50 [6]: 29 nM

CNC(=O)c1cc(COc2cnc(Nc3ccc(C4CCNCC4)c(OC)c3)nc2)c(F)c(OC)c1 [Compound 258]
IC50 [1]: 17 nM
IC50 ([2]; read-out: FGFR1 (FP) IC50): 28 nM
IC50 ([4]; read-out: FGFR2 (FP) IC50): 15 nM

CCN1CCN(c2ccc(Nc3ncc(CCc4cc(C(=O)NC)cc(OC)c4F)cn3)cc2OC)CC1 [Compound 157]
IC50 [1]: 6 nM
IC50 ([2]; read-out: FGFR1 (FP) IC50): 7 nM
IC50 ([4]; read-out: FGFR2 (FP) IC50): 5 nM

CNC(=O)c1cc(COc2cnc(Nc3cnn(C[C@@H](O)CO)c3)nc2)c(F)c(OC)c1 [Compound 219]
IC50 [1]: 8 nM
IC50 ([2]; read-out: FGFR1 (FP) IC50): 14 nM
IC50 ([4]; read-out: FGFR2 (FP) IC50): 10 nM

CCOc1cc(CCc2cnc(Nc3ccc(N4CCN(CC)CC4)cc3)nc2)cc(C(=O)NOC)c1 [Compound 50]
IC50 [3]: 581 nM
IC50 [6]: 387 nM
